Laboratory results from the NIST ThermoML archive (doi:10.1021/je0499768).
± gives the expanded uncertainty stated by the source.

Assay: molar heat capacity at saturation pressure
Conditions: Liquid

CCCCCO [pentan-1-ol]
Conditions	molar heat capacity [J/K/mol]
261.25 K	184.11 ± 0.77
261.84 K	184.56 ± 0.77
263.36 K	185.17 ± 0.77
263.95 K	185.84 ± 0.77
265.47 K	186.38 ± 0.77
266.05 K	186.93 ± 0.77
267.57 K	187.55 ± 0.78
268.14 K	188.12 ± 0.78
269.66 K	188.85 ± 0.78
270.23 K	189.24 ± 0.78
271.74 K	190.03 ± 0.78
272.3 K	190.52 ± 0.78
273.81 K	190.93 ± 0.78
274.36 K	191.79 ± 0.78
275.87 K	192.5 ± 0.79
276.41 K	193.06 ± 0.79
277.92 K	193.85 ± 0.79
278.46 K	194.4 ± 0.79
279.97 K	195.18 ± 0.79
280.49 K	195.74 ± 0.79
282 K	196.61 ± 0.79
282.51 K	197.04 ± 0.79
284.02 K	197.96 ± 0.8
284.53 K	198.45 ± 0.8
286.03 K	199.37 ± 0.8
286.53 K	199.91 ± 0.8
288.04 K	200.78 ± 0.8
288.52 K	201.35 ± 0.8
290.03 K	202.3 ± 0.8
290.5 K	202.81 ± 0.81
292.01 K	203.82 ± 0.81
292.48 K	204.11 ± 0.81
293.99 K	205.24 ± 0.81
294.44 K	205.79 ± 0.81
295.95 K	206.87 ± 0.81
296.39 K	207.42 ± 0.82
297.91 K	208.52 ± 0.82
298.34 K	208.88 ± 0.82
299.85 K	210.01 ± 0.82
300.27 K	210.28 ± 0.82
300.3 K	209.4 ± 0.82
300.6 K	209.89 ± 0.82
300.81 K	210.54 ± 0.82
301.09 K	210.46 ± 0.82
301.72 K	211.03 ± 0.82
302.2 K	211.81 ± 0.82
303.67 K	212.74 ± 0.83
304.12 K	213.39 ± 0.83
305.6 K	214.44 ± 0.83
306.03 K	215.06 ± 0.83
307.52 K	216.02 ± 0.83
307.94 K	216.66 ± 0.83
309.43 K	217.84 ± 0.84
309.83 K	218.39 ± 0.84
311.32 K	219.47 ± 0.84
311.72 K	219.98 ± 0.84
313.21 K	221.03 ± 0.84
313.59 K	221.54 ± 0.84
315.09 K	222.83 ± 0.85
315.46 K	223.3 ± 0.85
316.96 K	224.55 ± 0.85
317.31 K	224.93 ± 0.85
318.82 K	226.26 ± 0.85
319.16 K	226.53 ± 0.85
320.67 K	228 ± 0.86
320.99 K	228.31 ± 0.86
322.52 K	229.67 ± 0.86
322.82 K	229.96 ± 0.86
324.36 K	231.42 ± 0.86
324.65 K	231.73 ± 0.86
326.19 K	233.09 ± 0.87
326.46 K	233.41 ± 0.87
328.01 K	234.81 ± 0.87
328.27 K	235 ± 0.87
329.82 K	236.6 ± 0.87
330.07 K	236.82 ± 0.87
331.62 K	238.27 ± 0.88
331.85 K	238.73 ± 0.88
333.42 K	239.94 ± 0.88
333.63 K	240.3 ± 0.88
335.2 K	241.58 ± 0.88
335.4 K	241.97 ± 0.88
336.98 K	243.24 ± 0.89
337.16 K	243.65 ± 0.89
338.75 K	244.92 ± 0.89
338.92 K	245.3 ± 0.89
340.51 K	246.6 ± 0.89
340.66 K	246.9 ± 0.89
342.27 K	248.02 ± 0.9
342.4 K	248.57 ± 0.9
344.02 K	249.71 ± 0.9
344.13 K	250.3 ± 0.9
345.76 K	251.26 ± 0.9
345.85 K	252.05 ± 0.9
347.5 K	252.83 ± 0.91
347.57 K	253.58 ± 0.91
349.23 K	254.25 ± 0.91
349.27 K	255.13 ± 0.91
350.95 K	255.52 ± 0.91
350.97 K	256.62 ± 0.91
352.66 K	258.17 ± 0.92
352.67 K	256.89 ± 0.91
354.35 K	259.96 ± 0.92
354.38 K	259.82 ± 0.92
356.02 K	261.44 ± 0.92
356.07 K	261.38 ± 0.92
357.7 K	262.72 ± 0.93
357.76 K	262.85 ± 0.93
359.36 K	264.29 ± 0.93
359.43 K	264.36 ± 0.93
361.02 K	265.62 ± 0.93
361.1 K	265.85 ± 0.93
362.67 K	266.89 ± 0.93
362.77 K	267.17 ± 0.93
364.32 K	268.43 ± 0.94
364.43 K	268.78 ± 0.94
365.96 K	269.86 ± 0.94
366.08 K	270.13 ± 0.94
367.59 K	270.92 ± 0.94
367.73 K	271.33 ± 0.94
369.23 K	271.93 ± 0.94
369.37 K	272.76 ± 0.95
370.86 K	272.95 ± 0.95
371.01 K	274.05 ± 0.95
372.64 K	275.14 ± 0.95
374.27 K	276.38 ± 0.95
375.89 K	277.43 ± 0.95
377.52 K	278.66 ± 0.96
379.14 K	279.32 ± 0.96
380.76 K	280.36 ± 0.96
